Test results as given in PMC12300041, “Tricyclic Isatin Derivatives as Anti-Inflammatory Compounds with High Kinase Binding Affinity” (Molecules, 2025).

Key:
Assay in all cases: KINOMEscan
Format in all cases: binding
BLK = target: T1, BLK (Homo sapiens, UniProt P51451)
T1 construct: purchased Eurofins DiscoverX KINOMEscan
Summary of the method: (§1)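 Kd determination: 12-pt half-log series, top 33 μM; 1 h binding, RT; unbound kinase pulled down on immobilized ligand, measured by qPCR.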

CSNK1A1L = target: T2, CSNK1A1L (Homo sapiens, UniProt Q8N752)
T2 construct: purchased Eurofins DiscoverX KINOMEscan
Summary of the method: as §1

p38-σ = target: T3, p38-σ (Homo sapiens, UniProt O15264)
T3 construct: purchased Eurofins DiscoverX KINOMEscan
Summary of the method: as §1

BRK = target: T4, BRK (Homo sapiens, UniProt Q13882)
T4 construct: purchased Eurofins DiscoverX KINOMEscan
Summary of the method: as §1

PRKCH = target: T5, PRKCH (Homo sapiens, UniProt P24723)
T5 construct: purchased Eurofins DiscoverX KINOMEscan
Summary of the method: as §1

T3 sequence (O15264 whole entry): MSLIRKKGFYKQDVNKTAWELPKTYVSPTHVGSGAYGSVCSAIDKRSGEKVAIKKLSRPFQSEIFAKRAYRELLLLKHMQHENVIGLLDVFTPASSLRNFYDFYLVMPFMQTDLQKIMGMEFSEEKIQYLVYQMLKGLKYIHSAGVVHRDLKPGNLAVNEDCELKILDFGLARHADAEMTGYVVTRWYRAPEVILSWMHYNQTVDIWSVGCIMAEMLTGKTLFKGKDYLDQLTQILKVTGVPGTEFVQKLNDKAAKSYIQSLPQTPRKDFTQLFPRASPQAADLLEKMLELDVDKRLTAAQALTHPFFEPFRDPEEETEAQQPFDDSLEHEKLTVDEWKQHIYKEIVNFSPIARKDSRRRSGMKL
T5 sequence (P24723 whole entry): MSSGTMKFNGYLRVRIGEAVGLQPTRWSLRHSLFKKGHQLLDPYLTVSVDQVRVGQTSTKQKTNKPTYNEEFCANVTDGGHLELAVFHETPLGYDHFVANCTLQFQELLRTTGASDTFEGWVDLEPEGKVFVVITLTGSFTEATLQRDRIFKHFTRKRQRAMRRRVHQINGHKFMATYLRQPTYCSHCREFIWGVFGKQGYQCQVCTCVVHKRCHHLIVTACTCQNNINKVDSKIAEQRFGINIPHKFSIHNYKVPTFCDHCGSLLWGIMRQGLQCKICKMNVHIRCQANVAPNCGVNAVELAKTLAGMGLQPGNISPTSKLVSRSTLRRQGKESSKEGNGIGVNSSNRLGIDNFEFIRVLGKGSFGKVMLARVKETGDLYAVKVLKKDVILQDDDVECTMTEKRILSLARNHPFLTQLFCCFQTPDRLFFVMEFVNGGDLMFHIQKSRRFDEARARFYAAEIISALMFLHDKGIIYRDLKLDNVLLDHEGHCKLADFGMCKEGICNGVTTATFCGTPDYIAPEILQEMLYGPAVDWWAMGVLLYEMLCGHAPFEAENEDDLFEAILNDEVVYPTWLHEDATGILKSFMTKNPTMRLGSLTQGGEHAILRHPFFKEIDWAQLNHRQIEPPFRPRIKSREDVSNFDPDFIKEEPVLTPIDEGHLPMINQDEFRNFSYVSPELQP
T2 sequence (Q8N752 whole entry): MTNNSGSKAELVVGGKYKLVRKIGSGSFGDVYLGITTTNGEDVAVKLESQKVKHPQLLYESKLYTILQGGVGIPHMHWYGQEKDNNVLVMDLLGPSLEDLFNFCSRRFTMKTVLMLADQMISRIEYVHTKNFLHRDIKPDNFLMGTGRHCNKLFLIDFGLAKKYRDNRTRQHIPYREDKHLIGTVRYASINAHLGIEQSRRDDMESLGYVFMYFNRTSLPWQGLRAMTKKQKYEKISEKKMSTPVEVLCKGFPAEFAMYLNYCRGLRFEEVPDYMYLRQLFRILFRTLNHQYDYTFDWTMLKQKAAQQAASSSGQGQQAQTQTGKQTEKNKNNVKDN
T1 sequence (P51451 whole entry): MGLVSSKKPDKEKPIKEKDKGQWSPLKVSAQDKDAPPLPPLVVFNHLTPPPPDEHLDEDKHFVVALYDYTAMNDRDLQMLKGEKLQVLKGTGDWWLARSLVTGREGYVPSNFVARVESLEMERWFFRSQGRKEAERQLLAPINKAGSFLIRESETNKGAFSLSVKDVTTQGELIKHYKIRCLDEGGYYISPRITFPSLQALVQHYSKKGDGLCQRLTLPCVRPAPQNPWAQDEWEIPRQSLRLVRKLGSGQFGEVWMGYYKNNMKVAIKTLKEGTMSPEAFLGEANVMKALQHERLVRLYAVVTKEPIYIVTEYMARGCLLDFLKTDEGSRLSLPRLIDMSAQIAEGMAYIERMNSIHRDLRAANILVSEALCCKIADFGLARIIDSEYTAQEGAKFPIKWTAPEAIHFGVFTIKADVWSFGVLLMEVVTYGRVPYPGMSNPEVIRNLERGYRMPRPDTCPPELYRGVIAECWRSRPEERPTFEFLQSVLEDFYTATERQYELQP
T4 sequence (Q13882 whole entry): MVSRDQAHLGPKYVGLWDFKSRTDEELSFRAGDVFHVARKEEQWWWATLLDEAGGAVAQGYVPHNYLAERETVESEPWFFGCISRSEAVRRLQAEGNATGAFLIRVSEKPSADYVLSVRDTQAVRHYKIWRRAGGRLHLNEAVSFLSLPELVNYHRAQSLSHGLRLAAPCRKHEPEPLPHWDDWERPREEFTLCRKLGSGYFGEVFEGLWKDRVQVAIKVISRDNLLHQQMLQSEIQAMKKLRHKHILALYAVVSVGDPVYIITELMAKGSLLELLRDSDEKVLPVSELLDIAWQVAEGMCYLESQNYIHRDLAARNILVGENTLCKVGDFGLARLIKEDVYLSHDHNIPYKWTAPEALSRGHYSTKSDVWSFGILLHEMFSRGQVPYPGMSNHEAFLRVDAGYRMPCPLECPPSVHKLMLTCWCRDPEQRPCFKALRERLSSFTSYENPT

Compound `O=C1Nc2c(cc([N+](=O)[O-])c3c2CCCC3)C1=NO` [Compound 5d, 3-(Hydroxyimino)-5-nitro-1,3,6,7,8,9-hexahydro-2H-benzo[g]indol-2-one] has an inhibition at 10 µM (BLK) of 23%, an inhibition at 10 µM (CSNK1A1L) of 63% and an inhibition at 10 µM (p38-σ) of 7%. For the same compound, the inhibition at 10 µM (BRK) was 0% and the inhibition at 10 µM (PRKCH) was 0%.
